# Earlier results, collected in patent publication US20250339420A1, “ANILINE-DERIVATIVE-CONTAINING EXTERNAL PREPARATION FOR SKIN” (KINOPHARMA, INC., priority 2022, published 2025).
# Tests used:
# [1] = tested on: E6 and E7 genes of human papillomavirus (HPV)
structure (smiles),measurement,setting,value
"Fc1ccc(N2CCCCC2)c(NC(=S)c2ccncc2)c1 [Compound I-a, N-[5-fluoro-2-(1-piperidinyl)phenyl]-4-pyridinethioamide]",expression of E6 and E7 genes of human papillomavirus (HPV),[1],suppresses expression
same,effect on p53 gene,p53 gene,stabilizes p53 gene
same,antiviral activity against papillomavirus,papillomavirus,exhibits antiviral activity
